From US7144881B2, “Arylcyclopropylcarboxylic amides as potassium channel openers” (Bristol-Myers Squibb Company, priority 2002, dated 2006)

Legend:
[1] = molecular target: voltage-gated K+ channel KCNQ2 (Homo sapiens, UniProt O43526); experiment: Thallium flux assay for openers of KCNQ potassium channels; format: cell-based; settings: 10 point concentration series, 50% of the maximal response
Source text: A thallium flux assay was used to detect and characterize openers of KCNQ potassium channels. The thallium assay is generally described in International application WO 02/31508 published Apr. 18, 2002. More specifically, the thallium influx assay to detect compounds that block or open the voltage-gated K^+ channel KCNQ2 is described in Example IV of the published WO 02/31508 application.
For data analysis, the amplitude of the average of the negative controls was subtracted from all wells. The amplitudes of the test compounds were then compared to the value of four standard deviations of the negative control wells. The lowest concentration of a test compound sufficient to generate a signal amplitude greater than or equal to four standard deviations from the amplitude of the negative controls was defined as the minimal active concentration.
For generating EC50 values, compounds were serially diluted in 1:3 volume increments to produce a 10 point concentration series. EC50 values were calculated by fitting the resulting amplitudes to a single-site logistic equation. EC50 was defined as the concentration of test compound required to yield 50% of the maximal response. Maximal response (Maximal opening) was the largest signal amplitude above the negative control generated by any concentration of a test compound.

mKCNQ2 channels = molecular target: T1, mKCNQ2 channels (Mus musculus, UniProt Q9Z351); experiment: Whole-cell patch-clamp recordings of mKCNQ2 currents; format: cell-based; settings: HEK 293 stable cell line expressing mKCNQ2
T1 construct: expressed in transfected cells
Experimental: Whole-cell patch-clamp recordings were made from an HEK 293 stable cell line expressing mKCNQ2 channels, maintained in culture for 1–2 days. Patch pipettes had initial resistances of 2.5–4 MΩ. Currents were recorded with an EPC-9 amplifier (HEKA, Lambrecht, Germany) controlled with software (Pulse, HEKA) run on a standard lab PC. Series resistance compensation was used during current recording, and set at 80%. The series resistance (R) and cell capacitance (C) were determined electronically by subtracting the capacitive currents at the onset and offset of a 5 mV voltage step. The cancellation of whole-cell capacitive transients was virtually complete in all cells. Analog current signals were low-pass filtered at 2.9 kHz using a four-pole Bessel filter −3 dB) and stored on a local network server computer at a sampling rate of […]. All recordings were performed at room temperature (20–22° C.). The pipette solution contained (mM): KCl, 150; CaCl2, 2.5; EGTA, 5; MgCl2, 1; HEPES, 10; pH to 7.3 with KOH, and Osmolality of 290–300 mOsm. The extracellular solution contained (mM): NaCl, 140; KCl, 2.5; CaCl2, 2.5; MgCl2, 1; glucose, 10; HEPES, 10; pH to 7.3 with NaOH, and Osmolality of 305–310 mOsm […]

Structure (SMILES)	EC50 [1]	EC50 (mKCNQ2 channels; @ −40 mV, room temperature)	Imax (%) (mKCNQ2 channels; Imax from Hill-type curve fit)
C[C@H](NC(=O)C1CC1c1cccc(F)c1)c1cccc(-c2ccc(Cl)nc2)c1 (stereo partly drawn) [Example 34, (S)-2-(3-Fluoro-phenyl)-cyclopropanecarboxylicacid {1-[3-(6-chloro-pyridin-3-yl)-phenyl]-ethyl}-amide]	2210 nM		
O=C(N[C@@H](CO)c1ccc2ccccc2c1)C1CC1c1ccccc1Cl (stereo partly drawn) [Example 9, 2-(2-Chloro-phenyl)-cyclopropanecarboxylic acid(2-hydroxy-1-naphthalen-2-yl-ethyl)-amide]	22 nM		
O=C(N[C@@H](CO)c1ccc2ccccc2c1)C1CC1c1ccc(F)cc1 (stereo partly drawn) [Example 13, 2-(4-Fluoro-phenyl)-cyclopropanecarboxylic acid(2-hydroxy-1-naphthalen-2-yl-ethyl)-amide]	12 nM	0.597 µM	1232%
O=C(N[C@@H](CO)c1ccc2ccccc2c1)C1CC1c1ccccc1F (stereo partly drawn) [Example 11, 2-(2-Fluoro-phenyl)-cyclopropanecarboxylic acid(2-hydroxy-1-naphthalen-2-yl-ethyl)-amide]	1440 nM		

Now those with a lower EC50 [1], led by results:

EC50 [1]	EC50 (mKCNQ2 channels; @ −40 mV, room temperature)	Imax (%) (mKCNQ2 channels; Imax from Hill-type curve fit)	Structure (SMILES)
1 nM			C[C@H](NC(=O)[C@@H]1C[C@H]1c1ccccc1)c1cccc(-c2cccnc2)c1 [Example 32, (S)-2-Phenyl-cyclopropanecarboxylicacid [1-(3-pyridin-3-yl-phenyl)-ethyl]-amide]
1 nM			O=C(N[C@@H](CO)c1ccc2ccccc2c1)C1CC1c1cc(F)ccc1F (stereo partly drawn) [Example 14, 2-(2,5-Difluoro-phenyl)-cyclopropanecarboxylic acid(2-hydroxy-1-naphthalen-2-yl-ethyl)-amide]
1 nM			O=C(N[C@@H](CO)c1ccc2ccccc2c1)C1CC1c1ccccc1 (stereo partly drawn) [Example 15, 2-(phenyl)-cyclopropanecarboxylic acid(2-hydroxy-1-naphthalen-2-yl-ethyl)-amide]
